The test system of data set [1] is cotton worm (Spodoptera litura). The data set is described as follows: Test Method 1: foliar spray on cabbage seedling, cotton worm larvae. The data set is classed as in vivo. The following applies: 200 ppm, sprayed 20 mL/seedling on cabbage, third-instar larvae, after 6 days, Formulation Example 5, 25° C. The protocol:
(§1) Next, Test Examples are used to show efficacy of the Present compounds on controlling harmful arthropods and harmful nematodes. The following Test Examples were carried out at 25° C. Also, the “untreated group” represents a group where the similar treatment procedure to that of the treated group except not using the test compound is done.
(§2) Test compound is made to a formulation according to a similar method to that described in the Formulation Example 5, and thereto is added water containing 0.03 v/v % of Shindain (registered trademark) to prepare a diluted solution containing a prescribed concentration of the test compound.
Cabbage (Brassicae oleracea) seedling (on the developmental stage of the third to fourth true leaf) is planted in a container, and the diluted solutions are sprayed to the seedling at a ratio of 20 mL/seedling. Thereafter, 10 of third-instar larvae of cotton worm (Spodoptera litura) are released. After 6 days, the number of the surviving insects is counted, and the mortality of insects is calculated by the following equation.
(§3) Mortality (%)=(1−Number of surviving insects/10)×100
The test was conducted by making the prescribed concentration 200 ppm and using each of the below-mentioned Present compounds as a test compound according to the Test Method 1.

Data set [2] relates to brown planthoppers (Nilaparvata lugens). The experiment in a line: Test Method 5: foliar spray on rice seedling, brown planthoppers. The class given is in vivo. The following applies: 200 ppm, sprayed 10 mL/seedling on rice, third-instar larvae, after 6 days. The method, then:
as §1
The test compound is made to a formulation according to a similar method to that described in the Formulation Example 5, and thereto is added water containing 0.03 v/v % of Shindain (registered trademark) to prepare a diluted solution containing a prescribed concentration of the test compound.
Rice (Oryza sativa) seedling (on the developmental stage of the second true leaf) is planted in a container, and the diluted solutions are sprayed to the seedling at a ratio of 10 mL/seedling. Thereafter, 20 of third-instar larvae of brown planthoppers (Nilaparvata lugens) are released onto the rice seedling. After 6 days, the number of the surviving insects is examined and the mortality of insects is calculated by the following equation.
Mortality={1−Number of surviving insects/20}×100
The test was conducted by making the prescribed concentration 200 ppm and using each of the below-mentioned Present compounds as a test compound according to the Test Method 5.

Data set [3] relates to common house mosquito (Culex pipiens pallens) female adults. The experiment in a line: Test Method 10: coated container contact test, common house mosquito female adults. The class given is in vivo. The following applies: 10 mg/m^2 coated on inner face of container, after 1 day. The method, then:
as §1
The test compound is dissolved into acetone containing a surfactant, then the solution is poured into a 20 mL container, the solution is coated uniformly on the inner face of the container so that the test compound will be 10 mg/m^2 and the surfactant will be 40 mg/m^2, and the container is then dried.
Five (5) common house mosquito (Culex pipiens pallens) female adults are released into the container, and the container is then covered with lid. After the prescribed time, the state of the common house mosquito is examined, and the mortality is calculated by the following equation.
(§4) Mortality (%)=(Number of dead insects/Number of tested insects)×100
The test was conducted by making the prescribed time 1 day and using each of the below-mentioned Present compounds as a test compound.

For data set [4], the system named is diamondback moth (Plutella xylostella). The data set is described as follows: Test Method 2: foliar spray on cabbage seedling, diamondback moth larvae. The class given is in vivo. The following applies: third-instar larvae, after 6 days. The method, then:
as §1, §2
Cabbage (Brassicae oleracea) seedling (on the developmental stage of the third to fourth true leaf) is planted in a container, and the diluted solutions are sprayed to the seedling at a ratio of 20 mL/seedling. Thereafter, 10 of third-instar larvae of diamondback moth (Plutella xylostella) are released to the container. After 6 days, the number of the surviving insects is counted, and the mortality of insects is calculated by the following equation.
as §3
The test was conducted by making the prescribed concentration 200 ppm and using each of the below-mentioned Present compounds as a test compound according to the Test Method 2.
The test was conducted by making the prescribed concentration 500 ppm and using the below-mentioned Present compound as a test compound according to the Test Method 2 except for formulating it according to the Formulation Example 1 instead of the Formulation Example 5.

Data set [5] has as its system common house mosquito (Culex pipiens pallens) last instar larvae. The data set is described as follows: Test Method 9: common house mosquito larvae in diluted solution. The class given is in vivo. The following applies: 3.5 ppm in water, Formulation Example 1, last instar larvae, after 1 day. The protocol:
as §1
The test compound is made to a formulation according to a similar method to that described in the Formulation Example 1, and thereto is added water to prepare a diluted solution containing a prescribed concentration of the test compound.
Into the diluted solution, 30 last instar larvae of common house mosquito (Culex pipiens pallens) are released, and after 1 day, the state of the common house mosquito larvae is examined, and the mortality of insects is calculated by the following equation.
as §4
The test was conducted by making the prescribed concentration 3.5 ppm and using each of the below-mentioned Present compounds as a test compound according to the Test Method 9.

Data set [6] relates to southern root-knot nematodes (Meloidogyne incognita). The data set is described as follows: Test Example 12: tomato seedlings in soil contaminated with southern root-knot nematodes. The data set is classed as in vivo. The following applies: 60 mg in 60 mL: 20 mL mixed with 400 mL contaminated soil, 40 mL irrigated; tomato roots after 28 days; untreated group 5. The method, then: as §1
The Present compound 1 or 2 (60 mg) was dissolved into acetone (600 μL) containing 5% of Tween 20, and then thereto was added water to prepare a solution (60 mL).
The solution (20 mL) and soil (400 mL) contaminated with southern root-knot nematodes (Meloidogyne incognita) were mixed, and roots of healthy tomato (Lycopersicon esculentum) seedlings (third to fourth leaf stage) were transferred to the soil. Shortly after the transfer, the remaining solution (40 mL) was irrigated to the soil of the tomato seedlings.
After 28 days, the roots were pulled out of the soil, washed with water, and the degree of root damage (degree of root-knot) was investigated according to the Zeck's root-knot index (Zeck, W. M. (1971): Pflanzenschutz-Nachichten. Bayer AG, 24, 141-144.).
• 0: No root-knot is observed. • 1: Several small root-knots can be recognized by careful observation. • 2: Several small root-knots similar to 1 can be easily identified. • 3: There are many small root-knots, and some of which are fused. […]

In data set [7] the test system is cat flea (Ctenocephalides felis). The experiment in a line: Test Method 11: coated container contact test, cat flea adults. The class given is in vivo. The following applies: 20 mg/m^2 coated on inner face of container, after 2 days. The method, then:
as §1
The test compound is dissolved into acetone containing a surfactant, then the solution is poured into a 20 mL container, the solution is coated uniformly on the inner face of the container so that the test compound will be 20 mg/m^2 and the surfactant will be 40 mg/m^2, and the container is then dried.
Ten (10) cat flea (Ctenocephalides felis) adults are released into the container, and the container is then covered with lid. After the prescribed time, the state of the cat flea is examined, and the mortality is calculated by the following equation.
as §4
The test was conducted by making the prescribed time 2 days and using each of the below-mentioned Present compounds as a test compound.

Data set [8] concerns P388 mouse leukemia cells. The following applies: Nonpatent Document 2; cited from earlier work.
Setting [9] is: 200 ppm, sprayed 20 mL/seedling on cabbage, Formulation Example 5, 25° C.

A word on the mortality: it is the share of the test organisms that died. Read a low mortality as more survivors. Take `CC1=CC(=O)[C@H]2CC(=O)[C@H]3[C@@](C)(C[C@@]45OC(=O)C[C@]3(C)[C@]4(C)CC[C@]34C[C@@H](C)C[C@H](CN35)O4)[C@@H]2C1` [compound 1]: the mortality in data set [1], in data set [2], in data set [3], in data set [4] (setting [9]), in data set [5] and in data set [7] was 100% throughout. Besides, the “root-knot index (Zeck's root-knot index)” value in data set [6] was 2 (Several small root-knots similar to 1 can be easily identified.).

`CC1=CC(=O)[C@@H]2[C@@H](C1)[C@]1(C)C[C@@]34OC(=O)C[C@@](C)([C@H]1C(=O)[C@@H]2C)[C@]3(C)CC[C@]12C[C@@H](C)C[C@H](CN14)O2` [compound 2]: the mortality in data set [1], in data set [2], in data set [3], in data set [4] (setting [9]), in data set [5] and in data set [7] was 100% throughout. In addition, the “root-knot index (Zeck's root-knot index)” value in data set [6] is 2 (Several small root-knots similar to 1 can be easily identified.).

Take `CC1=CC(=O)[C@H]2CC(=O)[C@H]3[C@@](C)(C(=O)[C@@]45OC(=O)C[C@]3(C)[C@]4(C)CC[C@]34C[C@@H](C)C[C@H](CN35)O4)[C@@H]2C1` [compound 3]: in data set [5], the mortality is 100%.

Consider `CC1=CC(=O)[C@@H]2[C@@H](C1)[C@]1(C)C(=O)[C@@]34OC(=O)C[C@@](C)([C@H]1C(=O)[C@@H]2C)[C@]3(C)CC[C@]12C[C@@H](C)C[C@H](CN14)O2` [compound 4], for which the mortality was found to be 80% in data set [4] (500 ppm, Formulation Example 1 instead of 5, sprayed 20 mL/seedling on cabbage) and 100% in data set [5].

For `CC1=CC(=O)[C@H]2CC(=O)[C@H]3[C@@](C)(C[C@@]45OC(=O)C[C@]3(C)[C@]4(C)CC[C@]34C[C@@H](C)C[C@H](CN35)O4)[C@@H]2C1.Cl` [compound 5], the mortality in data set [1], in data set [2], in data set [3] and in data set [4] (setting [9]) was 100% in each case.

`CC1=CC(=O)[C@@H]2[C@@H](C1)[C@]1(C)C[C@@]34OC(=O)C[C@@](C)([C@H]1C(=O)[C@@H]2C)[C@]3(C)CC[C@]12C[C@@H](C)C[C@H](CN14)O2.Cl` [compound 6]: the mortality in data set [1], in data set [2], in data set [3] and in data set [4] (setting [9]) was 100% in each case.

For norzoanthamine [Present compound 1], the “growth of P388 mouse leukemia cells” value in data set [8] is reported as “inhibits the growth”.

Values taken from patent US20240148000A1, “METHOD FOR CONTROLLING HARMFUL ARTHROPODS OR HARMFUL NEMATODES USING ZOANTHAMINE” (SUMITOMO CHEMICAL COMPANY, LIMITED, priority 2021, published 2024).
